{
  "source": "patent US20100063008A1",
  "about": "“GELATINOUS ELASTOMER COMPOSITIONS” (Silipos, Inc., priority 2008, published 2010)",
  "key": {"[1]": {"assay": "Exudation of active agents from gel specimens to filter paper discs, quantified by UV, MS, GC and/or HPLC after extraction", "type": "physicochemical", "conditions": "for Active Agent Transferred from Gel to Filters: 37° C., 0.40 psi; for Total Active Agent Exuded from Gel: cumulative", "protocol": "Sample filter paper discs were placed in contact with gel specimens of same diameter under constant low pressure (0.40 psi. (2.8 Mpa)) at 37° C. Multiple time-controlled exposures of the filter paper to the gel were preformed in succession to same side of gel. Quantification of active agent transferred to the filter paper discs was determined by UV, MS, GC and or HPLC analysis after extraction of active agent from the filter paper. Exudation rates was expressed as μg/unit time per unit surface area.\nThis compound was then divided into three aliquots' of approximately 10 grams each and poured into a 2.625″ diameter aluminum petri dish and allowed to cool to create individual gel samle discs. Subsequently, absorbent cellulose filter blotter paper was die cut to enough 2.625″ diameter discs to be employed as a wicking media for repeated exposure in direct contact with the gel compound under specific conditions as follows.\n(§1) Exposure Conditions: 37-40 deg. C., Sample filter paper discs in contact with gel specimens of same diameter were stacked in […]. aluminum petri dishes, gel specimen diameter 2.625″×0.125″ thick, filter paper disc diameter 2.625″ with another petri dish and a 1 kg dead weight on top of stack. Pressure calculated at ˜0.407 psi. (2.8 Mpa) constant. Two replicates per test condition. Repeat exposures at 3 hours then repeat three exposures of 18 hours each, changing discs but keeping same gel specimen and same side of each gel specimen in contact with each successive filter paper disc sample.\nThe filter paper disc specimens aa through kk were then sent to an analytical laboratory for HPLC and GC analysis along with a small sample of each individual raw ingredient so that the HPLC and GC equipment could be calibrated for the protocol being employed by the lab. This calibration allowed for determining the maximum recoverable (measurable) amount of each ingredient that could be measured using these techniques and would later be used to correct the data. The analytical laboratory then detected and measured the amount of each of the added active agents that was flushed out of the filter paper discs using wet chemistry techniques known to those skilled in the art.\nThe analytical data was interpreted, and the amounts of each ingredient which was exuded into each filter paper blotter disc specimen, and subsequently extracted using wet chemistry, were then entered into a data analysis spreadsheet and adjusted based on the Analytical Recovery Rate to determine actual concentration of each ingredient extracted."}, "[2]": {"assay": "Total weight of exudate (oil) absorbed by filter paper blotter discs and theoretical amount of each ingredient exuded", "type": "physicochemical", "protocol": "as §1\nData was calculated to determine the total weight of exudate absorbed by each individual sample filter paper blotter disc test specimen. Calculations were then performed based upon the ratios of ingredients in the gel disc formula to determine the theoretical amount of each ingredient that could have been exuded from the oil if the oil contained the same ratio of ingredients as contained in the control oil sample and in the gel."}},
  "data": [
    {"smiles": "COC(=O)c1ccccc1O", "note": "[Methyl Salicylate, reference compound]", "values": [
      {"measurement": "Active Agent Transferred from Gel to Filters", "setting": "[1]; Gel Specimen Number 1, 1 h filter exposure, time 0-1 h", "value": 1005, "unit": "μg per filter"},
      {"measurement": "Active Agent Transferred from Gel to Filters", "setting": "[1]; Gel Specimen Number 1, 3 h filter exposure, time 1-4 h", "value": 1694, "unit": "μg per filter"},
      {"measurement": "Active Agent Transferred from Gel to Filters", "setting": "[1]; Gel Specimen Number 1, 18 h filter exposure, time 4-22 h", "value": 4812, "unit": "μg per filter"},
      {"measurement": "Active Agent Transferred from Gel to Filters", "setting": "[1]; Gel Specimen Number 1, 18 h filter exposure, time 22-40 h", "value": 5165, "unit": "μg per filter"},
      {"measurement": "Active Agent Transferred from Gel to Filters", "setting": "[1]; Gel Specimen Number 1, 18 h filter exposure, time 40-58 h", "value": 3882, "unit": "μg per filter"},
      {"measurement": "Total Active Agent Exuded from Gel", "setting": "[1]; Gel Specimen Number 1, Time 1 h", "value": 1005, "unit": "µg"},
      {"measurement": "Total Active Agent Exuded from Gel", "setting": "[1]; Gel Specimen Number 1, Time 4 h", "value": 2699, "unit": "µg"},
      {"measurement": "Total Active Agent Exuded from Gel", "setting": "[1]; Gel Specimen Number 1, Time 22 h", "value": 7511, "unit": "µg"},
      {"measurement": "Total Active Agent Exuded from Gel", "setting": "[1]; Gel Specimen Number 1, Time 40 h", "value": 12675, "unit": "µg"},
      {"measurement": "Total Active Agent Exuded from Gel", "setting": "[1]; Gel Specimen Number 1, Time 58 h", "value": 16558, "unit": "µg"},
      {"measurement": "Active Agent Transferred from Gel to Filters", "setting": "[1]; Gel Specimen Number 2, 1 h filter exposure, time 0-1 h", "value": 1753, "unit": "μg per filter"},
      {"measurement": "Active Agent Transferred from Gel to Filters", "setting": "[1]; Gel Specimen Number 2, 3 h filter exposure, time 1-4 h", "value": 2506, "unit": "μg per filter"},
      {"measurement": "Active Agent Transferred from Gel to Filters", "setting": "[1]; Gel Specimen Number 2, 18 h filter exposure, time 4-22 h", "value": 4847, "unit": "μg per filter"},
      {"measurement": "Active Agent Transferred from Gel to Filters", "setting": "[1]; Gel Specimen Number 2, 18 h filter exposure, time 22-40 h", "value": 4271, "unit": "μg per filter"},
      {"measurement": "Active Agent Transferred from Gel to Filters", "setting": "[1]; Gel Specimen Number 2, 18 h filter exposure, time 40-58 h", "value": 3729, "unit": "μg per filter"},
      {"measurement": "Total Active Agent Exuded from Gel", "setting": "[1]; Gel Specimen Number 2, Time 1 h", "value": 1753, "unit": "µg"},
      {"measurement": "Total Active Agent Exuded from Gel", "setting": "[1]; Gel Specimen Number 2, Time 4 h", "value": 4259, "unit": "µg"},
      {"measurement": "Total Active Agent Exuded from Gel", "setting": "[1]; Gel Specimen Number 2, Time 22 h", "value": 9106, "unit": "µg"},
      {"measurement": "Total Active Agent Exuded from Gel", "setting": "[1]; Gel Specimen Number 2, Time 40 h", "value": 13376, "unit": "µg"},
      {"measurement": "Total Active Agent Exuded from Gel", "setting": "[1]; Gel Specimen Number 2, Time 58 h", "value": 17106, "unit": "µg"},
      {"measurement": "Quantitative Analysis - Islechem u-gram extraction", "setting": "[1]; Specimen aa, Hours 1, Cummulative Hours 1", "value": 854, "unit": "u-gram"},
      {"measurement": "Quantitative Analysis - Islechem u-gram extraction", "setting": "[1]; Specimen bb, Hours 1, Cummulative Hours 1", "value": 1490, "unit": "u-gram"},
      {"measurement": "Quantitative Analysis - Islechem u-gram extraction", "setting": "[1]; Specimen cc, Hours 3, Cummulative Hours 4", "value": 1440, "unit": "u-gram"},
      {"measurement": "Quantitative Analysis - Islechem u-gram extraction", "setting": "[1]; Specimen dd, Hours 3, Cummulative Hours 4", "value": 2130, "unit": "u-gram"},
      {"measurement": "Quantitative Analysis - Islechem u-gram extraction", "setting": "[1]; Specimen ee, Hours 18, Cummulative Hours 22", "value": 4090, "unit": "u-gram"},
      {"measurement": "Quantitative Analysis - Islechem u-gram extraction", "setting": "[1]; Specimen ff, Hours 18, Cummulative Hours 22", "value": 4120, "unit": "u-gram"},
      {"measurement": "Quantitative Analysis - Islechem u-gram extraction", "setting": "[1]; Specimen gg, Hours 18, Cummulative Hours 40", "value": 4390, "unit": "u-gram"},
      {"measurement": "Quantitative Analysis - Islechem u-gram extraction", "setting": "[1]; Specimen hh, Hours 18, Cummulative Hours 40", "value": 3630, "unit": "u-gram"},
      {"measurement": "Quantitative Analysis - Islechem u-gram extraction", "setting": "[1]; Specimen ii, Hours 18, Cummulative Hours 58", "value": 3300, "unit": "u-gram"},
      {"measurement": "Quantitative Analysis - Islechem u-gram extraction", "setting": "[1]; Specimen kk, Hours 18, Cummulative Hours 58", "value": 3170, "unit": "u-gram"},
      {"measurement": "Estimated grams of ingredient exuded (theoretical amount from ratios of ingredients in the gel disc formula)", "setting": "[2]; Sample aa, Test Disc 1, Exposed 1 hours", "value": 0.0022, "unit": "grams"},
      {"measurement": "Estimated grams of ingredient exuded (theoretical amount from ratios of ingredients in the gel disc formula)", "setting": "[2]; Sample bb, Test Disc 1 Replicate, Exposed 1 hours", "value": 0.0031, "unit": "grams"},
      {"measurement": "Estimated grams of ingredient exuded (theoretical amount from ratios of ingredients in the gel disc formula)", "setting": "[2]; Sample cc, Test Disc 2, Exposed 3 hours", "value": 0.0024, "unit": "grams"},
      {"measurement": "Estimated grams of ingredient exuded (theoretical amount from ratios of ingredients in the gel disc formula)", "setting": "[2]; Sample dd, Test Disc 2 Replicate, Exposed 3 hours", "value": 0.0035, "unit": "grams"},
      {"measurement": "Estimated grams of ingredient exuded (theoretical amount from ratios of ingredients in the gel disc formula)", "setting": "[2]; Sample ee, Test Disc 3, Exposed 18 hours", "value": 0.0062, "unit": "grams"},
      {"measurement": "Estimated grams of ingredient exuded (theoretical amount from ratios of ingredients in the gel disc formula)", "setting": "[2]; Sample ff, Test Disc 3 Replicate, Exposed 18 hours", "value": 0.0062, "unit": "grams"},
      {"measurement": "Estimated grams of ingredient exuded (theoretical amount from ratios of ingredients in the gel disc formula)", "setting": "[2]; Sample gg, Test Disc 4, Exposed 18 hours", "value": 0.0064, "unit": "grams"},
      {"measurement": "Estimated grams of ingredient exuded (theoretical amount from ratios of ingredients in the gel disc formula)", "setting": "[2]; Sample hh, Test Disc 4 Replicate, Exposed 18 hours", "value": 0.0057, "unit": "grams"},
      {"measurement": "Estimated grams of ingredient exuded (theoretical amount from ratios of ingredients in the gel disc formula)", "setting": "[2]; Sample ii, Test Disc 5, Exposed 18 hours", "value": 0.0051, "unit": "grams"},
      {"measurement": "Estimated grams of ingredient exuded (theoretical amount from ratios of ingredients in the gel disc formula)", "setting": "[2]; Sample kk, Test Disc 5 Replicate, Exposed 18 hours", "value": 0.0051, "unit": "grams"}
    ]}
  ]
}
